Entries after “also recorded” stand apart in the source; their conditions may differ. Ends that are not written are not given here.
Test system: hAPP Tg mice (APP751 London and Swedish mutations)
Test: Morris Water Maze in hAPP-transgenic mice
Format: in vivo, mouse
Protocol: In order to determine the activity of the exemplary all-D retro-inverso IB(s) peptide XG-102 (SEQ ID NO: 233) in Alzheimer's disease, XG-102 (SEQ ID NO: 233) was evaluated in the hAPP-transgenic mice model overexpressing APP751 with London and Swedish mutations using the behavioral Morris Water Maze test as well as immunohistological tests measuring plaque load and ELISA tests measuring β-amyloid1-40 and β-amyloid1-42 levels in the brain of mice.
a) METHODS • i) Introduction • The study was designed to evaluate the efficacy of the test substance (XG-102, SEQ ID NO: 233) on behavioral, biochemical and histological markers using 5 months (±2 weeks) old female hAPP Tg mice. Therefore, mice were treated every two or three weeks up to 4 months and in the end of the treatment period behavior was evaluated in the Morris Water Maze. At sacrifice brain, CSF and blood were collected. Aβ40 and Aβ42 levels were determined in four different brain homogenate fractions as well as in CSF of Tg mice. Plaque load was quantified in the cortex and the hippocampus of 8 Tg animals per treatment group.
ii) Animals • Female Tg mice with a C57BU6xDBA background and an age of 5 months (±2 week) were randomly assigned to treatment groups 1 to 3 (n=12). […]

dqsrpvqpflnIttprkprpprrrqrrkkrg (DQSRPVQPFLNLTTPRKPRPPRRRQRRKKRG; not fully specified (some residues); printed as dqsrpvqpflnIttprkprpprrrqrrkkrg) [XG-102]
learning performance between day 1 and day 4 (0.1 mg/kg): a tendency to have worse learning performance between day 1 and day 4; also recorded: a slightly poorer learning performance between the first and the last training day | spatial learning in the MWM (0.1 mg/kg every two weeks or 10 mg/kg every three weeks s.c., four months): remained widely uninfluenced

From patent US10023615B2, “Efficient transport into white blood cells” (priority 2008, dated 2018)
